{"source": "patent US9770423B2", "about": "“Modulation sAPP, sAAPα and BDNF levels in individuals diagnosed with FXS and ASD” (Indiana University Research and Technology Corp., priority 2012, dated 2017)", "tested_on": "youth with Fragile X Syndrome (FXS)", "assay": "10-week open-label trial of acamprosate in youth with FXS: behavioral outcome measures", "type": "in vivo, human", "details": "for Aberrant Behavior Checklist-Social Avoidance (ABC-SA), end point mean ± SD: baseline 3.3 ± 2.6, p 0.01; for Clinical Global Impressions-Severity (CGI-S), end point mean ± SD: baseline 4.25 ± 0.45; for Clinical Global Impressions-Severity (CGI-S), end point mean ± SD / ADHD Rating Scale 4th Edition (ADHD-RS), end point mean ± SD: p <0.0001; for Aberrant Behavior Checklist-Social Withdrawal (ABC-SW), end point mean ± SD: baseline 8.8 ± 5.8, p 0.04 (Table 2), baseline 7.33 ± 5.2, p 0.014 (Table 5); for Aberrant Behavior Checklist-Hyperactivity (ABC-H), end point mean ± SD: baseline 16.8 ± 9.1, p 0.009; for ADHD Rating Scale 4th Edition (ADHD-RS), end point mean ± SD: baseline 23.6 ± 10.6; for Vineland Adaptive Behavior Scale (VABS) Communication Domain, end point mean ± SD: baseline 63.4 ± 10.1, p 0.03; for VABS Expressive Communication Subdomain, end point mean ± SD: baseline 69.8 ± 23.0, p 0.003; for Social Responsiveness Scale total score (SRS), end point mean ± SD: baseline 91.3 ± 27.4, p 0.005", "description": "The Institutional Review Board (IRB) at an academic medical center approved this study. Thirteen outpatient males and females aged 5 to 17 years with body weight 15 kg were recruited for this study. Written informed consent was obtained from each participant's legal guardian (parent for all children in this report), and subjects provided assent when able. Diagnosis of FXS was confirmed by Southern Blot and PCR results consistent with a greater than 200 CGG repeat expansion in the FMR1 gene with at least partial gene methylation. Subjects had to be free of other significant medical conditions. The concomitant use of psychotropic drugs that are not thought to impact glutamate neurotransmission were allowed so long as the patients experienced stable dosing at least 4 weeks prior to baseline. Subjects were required to have a mental age of greater than 18 months as determined by the Stanford-Binet 5th Edition. Additional inclusion criteria included a CGI-S(Guy 1976) score of at least 4 (“Moderately Ill”). Subjects with a Diagnostic and Statistical Manual of Mental Disorders, 4th Edition, Text Revision (DSM-IV-TR) diagnosis of a psychotic disorder, bipolar disorder, or substance use disorder were excluded from the study. Additionally, subjects with a positive urine pregnancy test, creatinine clearance of <30, active seizure disorder, or other significant medical condition were excluded.\nA 10-week, prospective, open-label study design was chosen to gather pilot data for potential future larger-scale, double-blind, placebo-controlled studies in this population.\nAll subjects underwent a screening and baseline visit followed by follow-up visits every 2 weeks during the 10-week open-label trial period. At the end of weeks 1, 3, and 5 the investigators called the parent to assess drug tolerability and to make dose adjustments as indicated. All subjects received 333 mg/day of acamprosate during the first week of the study. The investigators then increased the dosage to a maximum of 1,998 mg/day (weight>50 kg) or 1,332 mg/day (weight<50 kg) over the first six weeks of the study, if optimal clinical response (CGI-I equal to 1 “very much improved”) had not occurred and intolerable adverse effects had not emerged. The dose maintenance phase lasted 4 weeks at the optimal dosage.\nThe CGI-S assessment was administered at screen and at baseline as part of the eligibility criteria described above. In this study, the rater scored the CGI-S in regard to severity of symptoms commonly noted in FXS including, but not limited to, inattention/hyperactivity, social impairment, communication impairment, repetitive behavior, irritability, and anxiety. The CGI-S is rated on a scale from 1 to 7 (1=normal, not ill at all; 2=borderline ill; 3=mildly ill; 4=moderately ill; 5=markedly ill; 6=severely ill; 7=among the most extremely ill patients with FXS). The Autism Diagnostic Observation Schedule (ADOS) (Lord, Rutter et al. 1989) was administered at baseline to characterize potential concomitant ASD diagnosis.\nThe primary outcome measure was the CGI-I. The CGI-I is a scale designed to assess global change from baseline. […] Treatment response was defined by a CGI-I score of 1 “very much improved” or 2 “much improved.” In this study, the CGI-I was utilized as a general global primary outcome measure given the uncertainty as to what specific symptoms/behaviors associated with FXS may be expected to improve or worsen with use of acamprosate. The CGI-I was administered at all visits after baseline.\nSecondary outcome measures included all subscales of the ABC (Irritability, Social Withdrawal, Stereotypy, Hyperactivity, and Inappropriate Speech). The ABC is an informant-rated (primary caregiver) measure with confirmed reliability and validity with regard to factor structure, distribution of scores, and sensitivity to change in persons with developmental disability (Aman, Singh et al. 1985). […]", "key": {"[1]": {"details": "FXS, 10 weeks, listed as Acamprosate"}, "[2]": {"details": "baseline to endpoint, FXS, p=0.01"}, "[3]": {"details": "mean change from baseline to endpoint divided by SD at baseline, FXS"}}, "note": "Where “and” joins values, the source holds several entries; their conditions need not be identical. Equal values may be shown once.", "data": [{"smiles": "CC(=O)NCCCS(=O)(=O)O.[Ca]", "note": "[acamprosate, Calcium Acetylhomotaurine]", "values": [{"measurement": "treatment responders (CGI-I score of 1 or 2)", "setting": "12 youth with FXS, 10 weeks, mean final dose 1054 mg/day", "result": 75, "unit": "%"}, {"measurement": "mean CGI-I at endpoint", "setting": "12 youth with FXS, scale 1-7", "result": 1.9}, {"measurement": "mean CGI-I values for the responders at week 10", "setting": "FXS trial, week 10", "result": 1.92}, {"measurement": "PPVT scores, change with treatment", "setting": "FXS, 10 weeks", "result": "did not significantly change"}, {"measurement": "SRS Social Awareness and Autistic Mannerisms subscales, change with treatment", "setting": "FXS, 10 weeks", "result": "Improvement was not noted"}, {"measurement": "other VABS domains, change with treatment", "setting": "FXS, 10 weeks", "result": "No other changes with treatment were noted"}, {"measurement": "other subscales of the ABC and the CY-BOCS-PDD, change during treatment", "setting": "FXS, 10 weeks", "result": "did not change significantly"}, {"measurement": "Aberrant Behavior Checklist-Social Avoidance (ABC-SA), end point mean ± SD", "setting": "FXS, 10 weeks", "result": 1.6}, {"measurement": "Aberrant Behavior Checklist-Social Avoidance (ABC-SA), end point mean ± SD", "setting": "[1]", "result": "1.6 ± 2.7"}, {"measurement": "Clinical Global Impressions-Severity (CGI-S), end point mean ± SD", "setting": "FXS, 10 weeks", "result": 3.33}, {"measurement": "Clinical Global Impressions-Severity (CGI-S), end point mean ± SD", "setting": "[1]", "result": "3.33 ± 0.5 and 3.33 ± 0.49"}, {"measurement": "Aberrant Behavior Checklist-Inappropriate Speech (ABC-IS), end point mean ± SD", "setting": "FXS, 10 weeks, baseline 5.2 ± 3.5, p 0.61", "result": "4.8 ± 3.4"}, {"measurement": "Aberrant Behavior Checklist-Stereotypy (ABC-S), end point mean ± SD", "setting": "FXS, 10 weeks, baseline 6.8 ± 6.8, p 0.09", "result": "6 ± 6.3"}, {"measurement": "Aberrant Behavior Checklist-Social Withdrawal (ABC-SW), end point mean ± SD", "setting": "FXS, 10 weeks", "result": 4.1}, {"measurement": "Aberrant Behavior Checklist-Social Withdrawal (ABC-SW), end point mean ± SD", "setting": "[1]", "result": "4.1 ± 6.5"}, {"measurement": "Aberrant Behavior Checklist-Irritability (ABC-I), end point mean ± SD", "setting": "FXS, 10 weeks, baseline 9.9 ± 7.8, p 0.11", "result": "7.0 ± 8.9"}, {"measurement": "Children's Yale-Brown Obsessive Compulsive Scale Modified for PDD (CY-BOCS-PDD), end point mean ± SD", "setting": "FXS, 10 weeks, baseline 11.1 ± 2.6, p 0.15", "result": "9.8 ± 4.1"}, {"measurement": "Aberrant Behavior Checklist-Hyperactivity (ABC-H), end point mean ± SD", "setting": "FXS, 10 weeks", "result": 11.0}, {"measurement": "Aberrant Behavior Checklist-Hyperactivity (ABC-H), end point mean ± SD", "setting": "[1]", "result": "11.0 ± 8.6"}, {"measurement": "ADHD Rating Scale 4th Edition (ADHD-RS), end point mean ± SD", "setting": "FXS, 10 weeks", "result": 16.7}, {"measurement": "ADHD Rating Scale 4th Edition (ADHD-RS), end point mean ± SD", "setting": "[1]", "result": "16.7 ± 8"}, {"measurement": "Vineland Adaptive Behavior Scale (VABS) Communication Domain, end point mean ± SD", "setting": "FXS, 10 weeks", "result": 66.6}, {"measurement": "Vineland Adaptive Behavior Scale (VABS) Communication Domain, end point mean ± SD", "setting": "[1]", "result": "66.6 ± 11.2"}, {"measurement": "VABS Expressive Communication Subdomain, end point mean ± SD", "setting": "FXS, 10 weeks", "result": 78.9}, {"measurement": "VABS Expressive Communication Subdomain, end point mean ± SD", "setting": "[1]", "result": "78.9 ± 21.2"}, {"measurement": "Peabody Picture Vocabulary Test (PPVT), end point mean ± SD", "setting": "FXS, 10 weeks, baseline 85.2 ± 32.0, p 0.53", "result": "83.3 ± 32"}, {"measurement": "Social Responsiveness Scale total score (SRS), end point mean ± SD", "setting": "FXS, 10 weeks", "result": 76.4}, {"measurement": "Social Responsiveness Scale total score (SRS), end point mean ± SD", "setting": "[1]", "result": "76.4 ± 26.8 and 76.42 ± 26.8"}, {"measurement": "decline of mean ABC-H score", "setting": "baseline to endpoint, FXS", "result": 35, "unit": "%"}, {"measurement": "decline of mean ABC-SA score", "setting": "baseline to endpoint, FXS", "result": 51, "unit": "%"}, {"measurement": "decline of mean ABC-SW score", "setting": "baseline to endpoint, FXS", "result": 53, "unit": "%"}, {"measurement": "decline of mean ADHD-RS score", "setting": "baseline to endpoint, FXS", "result": 29, "unit": "%"}, {"measurement": "decline of mean total SRS raw score", "setting": "baseline to endpoint, FXS", "result": 16, "unit": "%"}, {"measurement": "improvement of mean VABS Communication Domain standard score", "setting": "baseline to endpoint, FXS", "result": 5, "unit": "%"}, {"measurement": "improvement of mean VABS Expressive Communication score", "setting": "baseline to endpoint, FXS", "result": 13, "unit": "%"}, {"measurement": "decline of SRS Social Motivation subscale", "setting": "baseline to endpoint, FXS, p=0.003", "result": 28, "unit": "%"}, {"measurement": "decline of SRS Social Cognition subscale", "setting": "[2]", "result": 19, "unit": "%"}, {"measurement": "decline of SRS Social Communication subscale", "setting": "[2]", "result": 14, "unit": "%"}, {"measurement": "Effect Size, ABC-H", "setting": "[3]", "result": 0.64}, {"measurement": "Effect Size, ABC-SA", "setting": "[3]", "result": 0.64}, {"measurement": "Effect Size, ABC-SW", "setting": "[3]", "result": 0.81}, {"measurement": "Effect Size, ADHD-RS", "setting": "[3]", "result": 0.65}, {"measurement": "Effect Size, CGI-S", "setting": "[3]", "result": 2.0}, {"measurement": "Effect Size, SRS total score", "setting": "[3]", "result": 0.54}, {"measurement": "Effect Size, VABS Communication Domain", "setting": "[3]", "result": 0.3}, {"measurement": "Effect Size, VABS Expressive Communication Subdomain", "setting": "[3]", "result": 0.4}, {"measurement": "Effect Size, VABS Communication Domain", "setting": "mean change from baseline to endpoint divided by SD at baseline, FXS, listed as Acamprosate", "result": 0.32}, {"measurement": "treatment responders, number of subjects", "setting": "of 12 youth with FXS", "result": 9}]}]}
